Data reported in patent US9255088B2, “Premature-termination-codons readthrough compounds” (The Regents of the University of California, priority 2010, dated 2016).

How the values were obtained:
[1] = system: ATM-Ser1981 foci in AT153LA cells (TGA A); assay: Irradiation-induced ATM-Ser1981 foci (IRIF) in AT153LA cells; for IRIF (ATMs1981): key: the positive results on various assays are also summarized and labeled as '+'; assay type: cell-based, human; conditions: for IRIF-ATM (%) (30 μM): Table 4, IR-induced ATMs1981 nuclear foci formation; for IR-induced ATMs1981 foci formation, readthrough activity: A-T153LA cells (TGA), FIG. 13; for IRIF (ATMs1981): summary of positive results
Description: To evaluate the function of RTC-induced ATM protein, we measured irradiation-induced foci (IRIF) formation of ATM-Ser1981 in the same ATI53LA cells (TGA A). […] The maximum IRIF induction achieved in A-T cells by 10 μM RTC#13 was ˜40% of wild-type level. As a positive readthrough control, 144 μM of G418 (100 μg/ml) was used to treat cells. Our previous studies had shown that, at this concentration, […] induced a maximum level of ATMs1981 IRIF (Lai et al., 2004).
Immunostaining of nuclear foci of ATM-Ser1981 was performed as previously reported (Du et al., 2007). In brief, after being treated with compound for 4 d, cells were irradiated with 2 Gy and incubated at 37° C. for 30 min. The cells were dropped onto coverslips, fixed with 4% paraformaldehyde, and permeabilized. Coverslips were blocked for 1 h and incubated with mouse anti-ATM pSer1981 for 1 h (1:500; Rockland Immunochemicals, Inc). After a second blocking, cells were stained with FITC-conjugated anti-mouse IgG (1:150; Jackson ImmunoResearch Laboratories) for 1 h and mounted onto slides.
Studies on IR-induced ATMs1981 foci formation by RTC#13 and derivatives 13a, 13b, 13d, 13e, 13f, 13g, 13h, 13i, 13j, and 13k in A-T153LA cells (TGA) were performed according to the procedures provided in Example 1.
(§1) These two series, 13 and 15, were again tested for readthrough activity using the assay in which the ATM protein kinase activity was measured by functional flow cytometry (FC-ATM) (Table 4 and FIG. 12). A second assay, irradiation (1R)-induced ATMs1981 nuclear foci formation (IRIF-ATM), was also used to confirm the readthrough activity of these compounds (Table 4 and FIG. 13). Table 3 summarizes the data for the analogues 13 and 15 (at 30 μM), in which the groups R, R′, and X were varied. More detailed data are reported in FIG. 5 (for FC-ATM assay), and in FIG. 6 (for IRIF-ATM assay). […] Thus, the pyrimidinedione unit serves as a good structural replacement for the 2-imino and 2-thioxo thiazolidin-4-one units.

[2] = system: ATMs1981 autophosphorylation in AT153LA cells (TGA); assay: Flow cytometry ATMs1981 autophosphorylation (FC-ATM) in AT153LA cells; assay type: cell-based, human; set-up: FC-ATM (Delta-FI, 30 μM): unit not given here; conditions: for FCATMs1981: summary of positive results; for FCATMs1981: key: the positive results on various assays are also summarized and labeled as '+'
Description: FC-SMC1 assay was performed as recently described (Nahas et al., 2009). FC-ATM-Ser1981 assay was based on Honda's assay (Honda et al., 2009, Leukemia. 23:409-414) with modifications. In brief, cells were resuspended in PBS and radiated for 10 Gy. After 1 h, the cells were fixed and permeabilized using the FIX & PERM cell permeabilization kit (Invitrogen). The cells were then incubated with 1 μl of mouse ATM-Ser1981 antibody (Cell Signaling Technology) for 2 h at room temperature. Cells were washed and resuspended in 100 μl PBS with Alexa Fluor 488 anti-mouse IgG (Invitrogen) for 45 min. Cells were next washed and resuspended in PBS with 0.2% paraformaldehyde and analyzed using a FACSCalibur (BD).
Studies on readthrough activity of RTC#13 derivatives as measured by FC-ATMS 1981 were performed according to the procedures provided in Example 1.
These two series, 7 and 9, were tested for readthrough activity using an assay in which the ATM protein kinase activity was measured using a flow cytometry-based ATMs1981 autophosphorylation assay (FC-ATM) (Nahas, S. A; et al., Clin. Chem. 2009, 55, 463-72). […] An increased Delta-FI indicates the restoration of ATM kinase activity by a compound.
as §1

[3] = Table 4, compounds 13 and 15, 30 μM
[4] = Table 2, compounds 7, 30 µM, change in fluorescence intensity before and after ionizing radiation

| SMILES | IRIF-ATM (%) (30 μM) [1] | FC-ATM (Delta-FI, 30 μM) [2, 3] | FCATMs1981 [2] | FC-ATM (Delta-FI, 30 μM) ([2]; Table 3, compounds 9, 30 μM) | also measured |
| --- | --- | --- | --- | --- | --- |
| N=c1[nH]c(=O)n(Cc2ccc(-c3ccccc3[N+](=O)[O-])o2)cc1F [Compound 15b] | negative | negative | – | – | – |
| Cc1cn(Cc2ccc(-c3ccccc3[N+](=O)[O-])o2)c(=O)[nH]c1=O [Compound 13c] | negative | negative | – | – | – |
| O=C1NC(=S)S/C1=C\c1ccc(-c2ccccc2C(F)(F)F)o1 [Compound 7k, (Z)-2-thioxo-5-((5-(2-(trifluoromethyl)phenyl)furan-2-yl)methylene)thiazolidin-4-one] | – | – | – | – | FC-ATM (Delta-FI, 30 μM) [2, 4]: negative |
| N=C1NC(=O)/C(=C/c2cn(Cc3ccc(-c4ccccc4[N+](=O)[O-])o3)c(=O)[nH]c2=O)S1 [Compound 13j, (Z)-5-((2-imino-4-oxothiazolidin-5-ylidene)methyl)-1-((5-(2-nitrophenyl)furan-2-yl)methyl)pyrimidine-2,4(1H,3H)-dione] | 18% | 2.42 | + | – | IR-induced ATMs1981 foci formation, readthrough activity [1]: statistically significant readthrough activity; IRIF (ATMs1981) [1]: + |
| O=c1ccn(Cc2ccc(-c3cccc(Cl)c3)o2)c(=O)[nH]1 [Compound 13i, 1-((5-(3-chlorophenyl)furan-2-yl)methyl)pyrimidine-2,4(1H,3H)-dione] | 11.33% | 5.07 | + | – | IR-induced ATMs1981 foci formation, readthrough activity [1]: statistically significant readthrough activity |
| O=c1ccn(Cc2ccc(-c3ccccc3)o2)c(=O)[nH]1 [Compound 13e, 1-((5-phenylfuran-2-yl)methyl)pyrimidine-2,4(1H,3H)-dione] | 9.4% | 3.42 | + | – | IR-induced ATMs1981 foci formation, readthrough activity [1]: statistically significant readthrough activity; IRIF (ATMs1981) [1]: + |
| O=c1[nH]c(=O)n(Cc2ccc(-c3ccccc3[N+](=O)[O-])o2)cc1F [Compound 13b, 5-fluoro-1-((5-(2-nitrophenyl)furan-2-yl)methyl)pyrimidine-2,4(1H,3H)-dione] | 14.5% | 2.08 | + | – | IR-induced ATMs1981 foci formation, readthrough activity [1]: statistically significant readthrough activity |
| O=c1ccn(Cc2ccc(-c3ccccc3F)o2)c(=O)[nH]1 [Compound 13g, 1-((5-(2-fluorophenyl)furan-2-yl)methyl)pyrimidine-2,4(1H,3H)-dione] | 20% | 5.43 | + | – | IR-induced ATMs1981 foci formation, readthrough activity [1]: all RTC#13 derivatives show statistically significant readthrough activity except for Derivative 13g |
| N=C1NC(=O)/C(=C/c2ccc(-c3ccccc3F)o2)S1 [Compound 7g, (Z)-5-((5-(2-fluorophenyl)furan-2-yl)methylene)-2-iminothiazolidin-4-one] | – | – | – | – | FC-ATM (Delta-FI, 30 μM) [2, 4]: negative |
| O=Cc1cn(Cc2ccc(-c3ccccc3[N+](=O)[O-])o2)c(=O)[nH]c1=O [Compound 13d, 1-((5-(2-nitrophenyl)furan-2-yl)methyl)-2,4-dioxo-1,2,3,4-tetrahydropyrimidine-5-carbaldehyde] | 16.0% | 2.24 | + | – | IR-induced ATMs1981 foci formation, readthrough activity [1]: statistically significant readthrough activity; IRIF (ATMs1981) [1]: + |
| O=C1NC(=S)S/C1=C\c1ccc(-c2ccccn2)o1 [Compound 9j, (Z)-5-((5-(pyridin-2-yl)furan-2-yl)methylene)-2-thioxothiazolidin-4-one] | – | – | – | negative | – |
| Cc1cn(Cc2ccc(-c3ccccc3F)o2)c(=O)[nH]c1=O [Compound 13h, 1-((5-(2-fluorophenyl)furan-2-yl)methyl)-5-methylpyrimidine-2,4(1H,3H)-dione] | 9.6% | 6.16 | + | – | IR-induced ATMs1981 foci formation, readthrough activity [1]: statistically significant readthrough activity; IRIF (ATMs1981) [1]: + |
| N=C1NC(=O)/C(=C/c2ccco2)S1 [Compound 9f, (Z)-5-(furan-2-ylmethylene)-2-iminothiazolidin-4-one] | – | – | – | negative | – |
| O=C1NC(=S)S/C1=C\c1cc2ccccc2[nH]1 [Compound 9h, (Z)-5-((1H-indol-2-yl)methylene)-2-thioxothiazolidin-4-one] | – | – | – | negative | – |
| COc1cccc(-c2ccc(/C=C3\SC(=S)NC3=O)o2)c1 [Compound 7o] | – | – | + | – | FC-ATM (Delta-FI, 30 μM) [2, 4]: 2.66 |
| COc1ccccc1-c1ccc(/C=C2\SC(=S)NC2=O)o1 [Compound 7l, (Z)-5-((5-(2-methoxyphenyl)furan-2-yl)methylene)-2-thioxothiazolidin-4-one] | – | – | – | – | FC-ATM (Delta-FI, 30 μM) [2, 4]: negative |
| COc1cccc(-c2ccc(/C=C3\SC(=N)NC3=O)o2)c1 [Compound 7h, (Z)-2-imino-5-((5-(3-methoxyphenyl)furan-2-yl)methylene)thiazolidin-4-one] | – | – | + | – | FC-ATM (Delta-FI, 30 μM) [2, 4]: 1.90 |
| N=C1NC(=O)/C(=C/c2ccc(-c3ccccc3)s2)S1 [Compound 9e, (Z)-2-imino-5-((5-phenylthiophen-2-yl)methylene)thiazolidin-4-one] | – | – | – | negative | – |
| N=C1NC(=O)/C(=C/c2cc3ccccc3[nH]2)S1 [Compound 9b, (Z)-5-((1H-indol-2-yl)methylene)-2-iminothiazolidin-4-one] | – | – | – | negative | – |
| O=C1NC(=S)S/C1=C\c1cc2ccccc2o1 [Compound 9g, (Z)-5-(benzofuran-2-ylmethylene)-2-thioxothiazolidin-4-one] | – | – | + | 3.50 | FC-ATM readthrough activity [2]: positive results |
| N=C1NC(=O)/C(=C/c2c[nH]c3ccccc23)S1 [Compound 9c, (Z)-5-((1H-indol-3-yl)methylene)-2-iminothiazolidin-4-one] | – | – | – | negative | – |
| N=C1NC(=O)/C(=C/c2ccc(-c3cccc(Cl)c3)o2)S1 [Compound 7i, (Z)-5-((5-(3-chlorophenyl)furan-2-yl)methylene)-2-iminothiazolidin-4-one] | – | – | + | – | FC-ATM (Delta-FI, 30 μM) [2, 4]: 2.27 |
| N=C1NC(=O)/C(=C/c2cc3ccccc3o2)S1 [Compound 9a, (Z)-5-(benzofuran-2-ylmethylene)-2-iminothiazolidin-4-one] | – | – | – | negative | – |
| O=C1NC(=S)S/C1=C\c1ccc(-c2cccc(Cl)c2)o1 [Compound 7p, (Z)-5-((5-(3-chlorophenyl)furan-2-yl)methylene)-2-thioxothiazolidin-4-one] | – | – | + | – | FC-ATM (Delta-FI, 30 μM) [2, 4]: 2.86 |
| N=C1NC(=O)/C(=C/c2ccc(-c3ccccn3)o2)S1 [Compound 9d, (Z)-2-imino-5-((5-(pyridin-2-yl)furan-2-yl)methylene)thiazolidin-4-one] | – | – | – | negative | – |
| O=C1NC(=S)S/C1=C\c1c[nH]c2ccccc12 [Compound 9i, (Z)-5-((1H-indol-3-yl)methylene)-2-thioxothiazolidin-4-one] | – | – | – | negative | – |
| CN1C(=N)S/C(=C\c2ccc(-c3ccccc3[N+](=O)[O-])o2)C1=O [Compound 7c, (Z)-2-imino-3-methyl-5-((5-(2-nitrophenyl)furan-2-yl)methylene)thiazolidin-4-one] | – | – | – | – | FC-ATM (Delta-FI, 30 μM) [2, 4]: negative |
